Measured values reported in US20060014723A1, “Anti-parasitic uses of borinic acid complexes” (priority 2004, published 2006).
Values after ≈ are worked out from the molar mass of the structure shown.

How the values were obtained:
[1] = test system: Leishmania donovani strain MHOM/ET1671L82; test: Leishmaniasis in vitro screening model (axenic amastigotes, Alamar Blue); assay type: cell-based; conditions: for IC50: Leishmania donovani, read-out: L. donovani IC50
Method: The Leishmania donovani strain MHOM/ET1671L82 (obtained from Dr. S. Croft, London School of Hygiene and Tropical Medicine) is used. The strain is maintained in the Syrian Golden hamster. Amastigotes are collected from the spleen of an infected hamster. Amastigotes are grown in axenic culture at 37° C. in SM medium (Cunningham I., J. Protozoal. 24:325-329, 1977) at pH 5.4 supplemented with 10% heat-inactivated fetal bovine serum (FBS) under an atmosphere of 5% CO2 in air.
(§1) After use the stocks are kept at −20° C. For the assays, the compound is further diluted to the appropriate concentration using complete medium.
Assays are performed in 96-well flat-bottom microtiter plates (Costar, Corning Inc.), each well containing 100 μl of culture medium with 105 amastigotes from axenic culture with or without a serial drug dilution. Concentration of amastigotes is determined in a CASY cell analyzing system (Scharfe System, Reutlingen, Germany). Before the amastigotes are counted, the parasite culture is passed twice through a 22-gauge needle to break up clusters of amastigotes.
The highest concentration for the test compounds is 90 μg/mL. Seven 3-fold dilutions are used, covering a range from […]. Each drug is tested in duplicate. Active compounds are tested twice for confirmation. After 72 hours of incubation, the plates are inspected under an inverted microscope to assure growth of the controls and sterile conditions.
Ten μL of Alamar Blue (12.5 mg resazurin dissolved in 100 mL distilled water) are then added to each well and the plates are incubated for another 2 hours. Then the plates are read with a Spectramax GEMINI XS microplate fluorometer (Molecular Devices Cooperation, Sunnyvale, Calif., USA) using an excitation wave length of 536 nm and an emission wave length of 588 nm.
Data are analyzed using the microplate reader software Softmax Pro (Molecular Devices Cooperation, Sunnyvale, Calif., USA). Decrease of fluorescence (i.e. inhibition) is expressed as percentage of the fluorescence of control cultures and plotted against the drug concentrations. The IC50 value is calculated from the sigmoidal inhibition curve by the software program.

[2] = test system: P. falciparum K1; test: Malaria in vitro screening model (3H-hypoxanthine incorporation); assay type: cell-based, Plasmodium falciparum; conditions: for IC50: Plasmodium falciparum, K1
Method: […] P. falciparum K1 is used in this study. K1 (a clone originating from Thailand) is resistant to chloroquine and pyrimethamine. The strains are maintained in RPMI 1640 medium with 0.36 mM hypoxanthine, supplemented with 25 mM N 2-hydroxyethyipiperazine-N-2-ethane-sulphonic acid (HEPES), 25 mM NaHCO3, neomycin (100 U/mL) and 5 g/L of ALBUMAX® II (lipid-rich bovine serum albumin, GIBCO, Grand Island, N.Y., USA), together with 5% washed human A+ erythrocytes. All cultures and assays are conducted at 37° C. under an atmosphere of 4% CO2, 3% O2 and 93% N2. Cultures are kept in incubation chambers filled with the gas mixture. Subcultures are diluted to a parasitemia of between 0.1 and 0.5% and the medium is changed daily.
Antimalarial activity is assessed using an adaptation of the procedures described by Desjardins et al. (Antimicrob. Agents Chemother. 16:710-718, 1979), and Matile and Pink (In: Lefkovits, I. and Pernis, B. (Eds.), Immunological Methods Vol. IV, Academic Press, San Diego, pp. 221-234, 1990).
Stock drug solutions are prepared in 100% dimethylsulfoxide (DMSO) at 10 mg/mL, and heated or sonicated if necessary to dissolve the sample. After use, the stocks are kept at −20° C. For the assays, the compound is further diluted in serum-free culture medium and finally to the appropriate concentration in complete medium without hypoxanthine.
Assays are performed in sterile 96-well microtiter plates, each well containing 200 μl of parasite culture (0.15% parasitemia, 2.5% hematocrit) with or without serial drug solutions. Seven 2-fold dilutions are used, covering a range from […] to 0.078 μg/mL. For active compounds the highest concentration is lowered (e.g., to […]); for plant extracts the highest concentration is increased to 50 μg/mL. […] After 48 hours of incubation at 37° C., 0.5 μCi ^3H-hypoxanthine is added to each well. Cultures are incubated for a further 24 h before being harvested onto glass-fiber filters and washed with distilled water. The radioactivity is counted using a Betaplate liquid scintillation counter (Wallac, Zurich, Switzerland). The results are recorded as counts per minute per well at each drug concentration and expressed as percentage of the untreated controls. IC50 values are calculated from the sigmoidal inhibition curves using Microsoft EXCEL.

[3] = test system: T. b. rhodesiense STIB 900; test: African sleeping sickness in vitro screening model (Alamar Blue); assay type: cell-based, Trypanosoma brucei rhodesiense; conditions: for IC50: Trypanosoma brucei
Method: Bloodstream from trypomastigotes of the strains (a) and (c) are maintained in Minimal Essential Medium (MEM) with Earle's salts supplemented according to Baltz, et al., (EMBO J. 4:1273-1277, 1985) with 25 mM N-2-hydroxyethylpiperazine-N′-2-ethane-sulphonic acid (HEPES), 1 g/L additional glucose, 1% MEM non-essential amino acids (100×), 0.2 mM 2-mercaptoethanol, 2 mM sodium pyruvate, 0.1 mM hypoxanthine and 15% heat-inactivated horse serum.
All cultures and assays are conducted at 37° C. under an atmosphere of 5% CO2 in air.
After use the stocks are kept at −20° C. For the assays, the compound is further diluted in serum-free culture medium and finally to the appropriate concentration in complete medium without hypoxanthine.
Assays are performed in 96-well microtiter plates, each well containing 100 μL of culture medium with 8×10^3 bloodstream forms with or without a serial drug dilution. The highest concentration for the test compounds is 90 μg/mL. Seven 3-fold drug dilutions are used, covering a range from 90 μg/mL to 0.123 μg/mL. Each drug is tested in duplicate. Active compounds are tested twice for confirmation. The final result is the mean of the four individual IC50 values. After 72 hrs of incubation, the plates are inspected under an inverted microscope to assure growth of the controls and sterile conditions.
Ten μL of Alamar Blue (12.5 mg resazurin dissolved in 100 mL distilled water) are now added to each well and the plates are incubated for another 2 hours. Then the plates are read with a Spectramax GEMINI XS microplate fluorometer (Molecular Devices Cooperation, Sunnyvale, Calif., USA) using an excitation wavelength of 536 nm and an emission wave length of 588 nm.
IC50 values are determined using the microplate reader software Softmax Pro (Molecular Devices Cooperation, Sunnyvale, Calif., USA).

[4] = test system: Trypanosoma cruzi Tulahuen C2C4 strain; test: Chagas disease in vitro screening model (beta-galactosidase strain in L-6 cells); assay type: cell-based; conditions: for IC50: Trypanosoma cruzi, TULAHUEN, L6, read-out: T. cruzi IC50
Method: Trypanosoma cruzi Tulahuen C2C4 strain, containing the β-galactosidase (Lac Z) gene (Buckner et al., Antimicrob. Agents Chemother 40:2592-2597, 1996) is used for this study.
The infective amastigote and trypomastigote stages are cultivated in L-6 cells (a rat skeletal myoblast cell line) in RPMI 1640 medium supplemented with 2 mM L-glutamine and 10% heat-inactivated fetal bovine serum in 12.5 cm^2 tissue culture flasks. Amastigotes develop intracellularly, differentiate into trypomastigotes, and leave the host cell. These trypomastigotes infect new L-6 cells and are the stages used to initiate an infection in the assay. All cultures and assays are conducted at 37° C. under an atmosphere of 5% CO2 in air.
as §1
Assays are performed in sterile 96-well microtiter plates, each well containing 100 μl medium with 2×10^3 L-6 cells. After 24 hours, […] of a trypanosome suspension containing 5×10^3 trypomastigote bloodstream forms from culture are added to the wells. Forty-eight hours later, the medium is removed from the wells and replaced by […] fresh medium, with or without a serial drug dilution. At this point the L-6 cells should be infected with amastigotes and no free trypomastigotes should be in the medium. Seven 3-fold drug dilutions are used, covering a range from 90 μg/mL to 0.123 μg/mL. Each drug is tested in duplicate. Active compounds are tested twice for confirmation. After 96 hours of incubation the plates are inspected under an inverted microscope to assure growth of the controls and sterility.
Then the substrate CPRG/Nonidet (50 μl) is added to all wells. A colour reaction will become visible within 2-6 hours and can be read photometrically at 540 nm. Data are transferred into a graphics program (e.g., EXCEL), sigmoidal inhibition curves determined and IC50 values calculated.

Row | Compound | IC50 [1] [µg/mL] | IC50 [2] [µg/mL] | IC50 [3] [µg/mL] | IC50 [4] [µg/mL] | L. donovani IC50 [1] [µg/mL] | P. falciparum IC50 [2] [µg/mL] | T. b. rhodesiense IC50 [3] [µg/mL] | T. cruzi IC50 [4] [µg/mL]
1 | Cc1ccc(B(Oc2cccc3cccnc23)c2ccccc2)cc1Cl [Compound 10, (3-Chloro-4-methylphenyl)phenylborinic acid quinolin-8-yl ester] | 0.38 (≈ 1.06 µM) | 1.5 (≈ 4.19 µM) | 0.52 (≈ 1.45 µM) | 4.2 (≈ 11.7 µM) | – | – | – | –
2 | Fc1ccc(B(Oc2cccc3cccnc23)c2ccc(F)c(Cl)c2)cc1Cl [Compound 12, Bis(3-chloro-4-fluoro-phenyl)borinic acid quinolin-8-yl ester] | 0.68 (≈ 1.64 µM) | 1.5 (≈ 3.62 µM) | 0.52 (≈ 1.26 µM) | 5.6 (≈ 13.5 µM) | – | – | – | –
3 | Fc1ccc(B(Oc2cccc3cccnc23)c2cccc(Cl)c2)cc1 [Compound 14, (3-Chlorophenyl)(4-fluorophenyl)borinic acid quinolin-8-yl ester] | 0.37 (≈ 1.02 µM) | 1.9 (≈ 5.25 µM) | 0.5 (≈ 1.38 µM) | – | 0.48 | 1.93 | 0.28 | –
4 | Fc1ccc(B(Oc2cccc3cccnc23)c2ccc(Cl)cc2)cc1 [Compound 15, (4-chlorophenyl)(4-fluorophenyl) borinic acid quinolin-8-yl ester] | 0.5 (≈ 1.38 µM) | 1.82 (≈ 5.03 µM) | 0.28 (≈ 0.774 µM) | 0.906 (≈ 2.51 µM) | – | – | – | –
5 | N#Cc1ccc(B(Oc2cccc3cccnc23)c2cccc(Cl)c2)cc1 [Compound 26, (3-Chlorophenyl)(4-cyanophenyl)borinic acid quinolin-8-yl ester] | 0.41 (≈ 1.11 µM) | 1.4 (≈ 3.8 µM) | 0.29 (≈ 0.787 µM) | – | 0.55 | 1.44 | 0.21 | –
6 | C=CB(Oc1cccc2cccnc12)c1c(C)noc1C [Compound 118] | – | – | – | – | 0.44 | – | 0.265 | 3.5
7 | C=CB(Oc1cccc2cccnc12)c1ccc(CN(C)C)cc1 [Compound 119] | – | – | – | – | 0.36 | – | 0.51 | 3.8
8 | N#Cc1cccc(B(Oc2cccc3cccnc23)c2cc(F)cc(C(F)(F)F)c2)c1 [Compound 121] | – | – | – | – | 0.53 | – | 0.43 | 4.95
9 | C=CB(Oc1cccc2cccnc12)c1ccc(CN(C)C)cc1.Cl [Compound 124] | – | – | – | – | 0.3 | – | 0.445 | 3.95
10 | Cc1ccc(B(OC(=O)c2ncccc2O)c2ccc(C)c(Cl)c2)cc1Cl [Compound 127, Bis(3-Chloro-4-methylphenyl)borinic acid 3-hydroxypicolinate ester] | – | – | – | – | 0.36 | – | 2.5 | 6.3
11 | Cc1ccc(B(OC(=O)c2ncccc2C(=O)O)c2ccc(C)c(Cl)c2)cc1Cl [Compound 128] | – | – | – | – | 0.61 | – | 8 | 1.75
12 | Cc1ccc(B(OC(=O)c2ncccc2N)c2ccc(C)c(Cl)c2)cc1Cl [Compound 129] | – | – | – | – | 1.6 | – | 4.4 | 0.855
13 | O=C(OB(c1ccc(Cl)cc1)c1ccc(Cl)cc1)c1cccc(O)n1 [Compound 132] | – | – | – | – | 14.1 | – | 45.7 | 23.4
14 | N#Cc1cccc(B(OC(=O)c2ncccc2O)c2cccnc2)c1 [Compound 133] | – | – | – | – | 2.2 | – | 0.86 | 10.4
15 | Cc1cc(Cl)ccc1B(OC(=O)c1ncccc1O)c1ccc(Cl)cc1C [Compound 134] | – | – | – | – | 0.12 | – | 1.7 | 3.6
